Literature values as cited in patent US20190374622A1, “COMPOSITION AND METHOD FOR CO-ADMINISTRATION WITH A GROWTH PROMOTANT” (OmniGen Research, LLC, priority 2014, published 2019).
Where a name gives a salt, the structure may show the parent alone. Read-outs that look alike come from different tables or passages of the source.

Tests used:
[1] = cited from earlier work; for increase in average daily weight gain: last 2 weeks
[2] = cattle, cited from earlier work
[3] = finishing swine; cited from earlier work
[4] = cited from earlier work
[5] = 300 mg per head per day, vs cattle that did not receive it

SMILES	increase in average daily weight gain ([1]; hens)	increase in average daily weight gain ([1]; toms)	meat quality, including pH, color and tenderness ([1]; turkeys)	increase in hot carcass weight [2, 5]	increase in live weight [2, 5]	carcass leanness and yield grade [2]	carcass quality, as measured by marbling score and quality grade [2]	better feed efficiency [3]	fat-free lean gain [3]	increase in average daily gain [3]	increase in carcass weights [3]	meat quality [3]	improvement of feed efficiency ([4]; cattle, administered as Zilmax, one study (Intervet/Schering Plough 2010))	number of Yield Grade 4 and 5 cattle [4]	percentage of Yield Grade 1 cattle [4]
CC(CCc1ccc(O)cc1)NCC(O)c1ccc(O)cc1 (racemic) [Ractopamine hydrochloride, 4-[3-[[2-hydroxy-2-(4-hydroxyphenyl)ethyl]amino]butyl]phenol]	19%	13%	no effect	20 pounds	22 pounds	improves	no effect	10%	improve	10%	5 pounds	not affecting			
CC(C)NC1CCn2c(=O)[nH]c3cccc(c32)C1O (stereo not drawn) [Zilpaterol hydrochloride, 4,5,6,7-tetrahydro-7-hydroxy-6-(isopropylamino)imidazo[4,5,1-jk][1]benzazepin-2(1H)-one]													3%	cut	increase
